Source: US10548895B2, “Ligands that target Plasmodium sporozoite binding sites on CD81 and therapeutic methods using them” (American University In Cairo (AUC), priority 2014, dated 2020)
Entries after “also recorded” stand apart in the source; their conditions may differ.

Tests used:
[1] = biological target: T1, CD81-LEL (Homo sapiens, UniProt P60033); assay: Surface plasmon resonance binding of ligands to immobilized CD81-LEL; conditions: SPR; for Binding (change in response units): 3 min association; for Dissociation 1 (change in response units) / Dissociation 2 (change in response units): dissociation interval
T1 construct: A recombinant form of the CD81-LEL protein with a GST tag; gift of Dr. Shoshana Levy, Stanford University
T1 sequence (P60033 113-201 limits assumed): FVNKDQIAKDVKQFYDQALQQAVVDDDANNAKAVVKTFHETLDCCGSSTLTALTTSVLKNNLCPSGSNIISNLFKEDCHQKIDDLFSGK
Experimental: SPR analysis was performed using a Biacore T200 workstation (GE Healthcare, NJ, USA). A recombinant form of the CD81-LEL protein with a GST tag (generously provided by Dr. Shoshana Levy, Stanford University) was used to confirm, using an established experimental technique, the binding of several ligands to the protein. Briefly, 10 μM CD81-LEL-GST diluted into 10 mM Na-Acetate buffer pH 4.5 was immobilized for 15 min at a flow speed of 5 μl/min onto a CM5 sensor chip using amine-coupling (EDC-NHS), Approximately 20,000 RU of protein were immobilized on the chip. The ligands were prepared as 600 μM solutions in PBS-0.05% Tween-80 (the running buffer) and they were introduced to the protein using a pre-programmed 3 minute association and 1 minute dissociation interval.
SPR analysis was performed using a Biacore T100 workstation (GE Healthcare, NJ, USA). […] Approximately 20,000 RU of protein were immobilized on the chip. The ligands were prepared as 200 uM solutions in PBS-1% DMSO (the running buffer) and they were introduced to the protein using a pre-programmed 3 min association and 1 min dissociation interval.

[2] = biological target: T2, native CD81 on Raji cells (Homo sapiens, UniProt P60033); assay: Antibody neutralizing assay: inhibition of JS-81 anti-CD81 antibody binding on Raji cells (FACS); type: cell-based; conditions: Raji cells, read-out: Inhibition of JS-81 Binding (%); for inhibition at 50 µM: 50 μM ligand; for inhibition at 100 µM: 100 μM ligand; for inhibition at 400 µM: 400 μM ligand
T2 construct: endogenous in cells; host or cells: Raji cells (human B cell line)
T2 sequence (P60033 1-236): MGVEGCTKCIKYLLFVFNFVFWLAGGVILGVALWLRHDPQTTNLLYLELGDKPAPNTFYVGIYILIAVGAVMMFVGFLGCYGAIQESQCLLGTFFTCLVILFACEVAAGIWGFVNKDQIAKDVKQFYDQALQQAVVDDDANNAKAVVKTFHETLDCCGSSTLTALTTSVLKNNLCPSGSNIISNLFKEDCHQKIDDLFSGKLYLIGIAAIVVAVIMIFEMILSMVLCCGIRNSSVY
Experimental: For antibody neutralization assay Raji cells were used, a human B cell line that expressed high amounts of CD81 on the surface (data not shown), Cells were grown in RPMI medium (10% FCS, 1% penicillin/streptomycin, 1% L-glutamine, 1% non-essential amino acids, 1% sodium pyruvate, pH 7.4, at 37° C. with 5% CO2). 2×10^5 cells were incubated with or without different concentrations (50 μM, 100 μM, 400 μM and 1 mM) of indicated inhibitor for 20 min at room temperature, subsequently 1 ul (16 ng/μl) of FITC-labeled anti CD81 antibody (BD Pharmingen, 551108) was added to the cells and incubated for 20 min (antibody titration was performed to obtain a working dilution range, data not shown). Cells were washed and analyzed by FACS (BD FACSCalibur, software: Cell Quest Pro). Mean Fluorescence Intensity MFI was calculated using Flowjo software (TreesStar, www.flowjo.com).

[3] = system: Plasmodium falciparum; assay: Sporozoite invasion assay, P. falciparum in HepG2-CD81 cells; type: cell-based
Experimental: (§1) Anopheles stephensi mosquitoes were fed on mice infected with Plasmodium yoelii 17XNL parasites. On day 14 post bloodmeal, salivary glands were harvested, homogenized, sporozoite number was determined using a hemocytometer and the indicated number of sporozoites was added to cell monolayers, Plasmodium falciparum sporozoites were generated by membrane feeding An. stephensi mosquitoes using gametocyte cultures generated in vitro.
(§2) HepG2-CD81 (14) cells were maintained in DMEM supplemented with 10% fetal calf serum and 1 mM glutamine (DMEM/FCS), mAb 2E6 was used for development assays and is directed against Plasmodium Hsp 70 (15) and mAb 2A10 is directed against the repeat region of P. falciparum CSP and was used for invasion assays.
(§3) 5×10^5 HepG2-CD81 cells were plated on collagen coated Lab-Tek wells and allowed to adhere overnight. The following day, cells were preincubated with 400 uM of compound for 30 minutes at 37° C. Controls were pre-incubated with DMSO at the same concentration in which it was found in the compound solutions. 10^5 sporozoites were added to each well and in the case of P. falciparum, incubated for 1.5 hours and scored for invasion whereas in the case of P. yoelii, incubated for 44 hours and scored for exoerythrocytic stages.

[4] = system: Plasmodium yoelii; assay: Sporozoite development assay, P. yoelii in HepG2-CD81 cells; type: cell-based
Experimental: as §1, §2, §3

[5] = system: Plasmodium yoelii; assay: Sporozoite infection assay, P. yoelii in Hepa1-6 cells; type: cell-based
[6] = system: Plasmodium berghei; assay: Sporozoite infection assay, P. berghei in Hepa1-6 cells; type: cell-based; conditions: for effect on infection (in words): Hepa1-6 cells
[7] = system: Plasmodium berghei; assay: Sporozoite infection assay, P. berghei in HepG2 cells; type: cell-based

Row | Binding (change in response units) [1] | Dissociation 1 (change in response units) [1] | Dissociation 2 (change in response units) [1] | inhibition at 50 µM [2] | inhibition at 100 µM [2] | inhibition at 400 µM [2] | SMILES | effect on infection (in words) ([3]; P. falciparum) | effect on infection (in words) ([4]; P. yoelii, HepG2-CD81) | effect on infection (in words) ([5]; P. yoelii, Hepa1-6 cells) | effect on infection (in words) ([6]; P. berghei) | effect on infection (in words) [7] | Percent Infection ([3]; HepG2-CD81, Plasmodium falciparum, 400 uM compound) | percentage of infection inhibition ([3]; P. falciparum, HepG2-CD81) | Percent Infection ([4]; HepG2-CD81, Plasmodium yoelii, 400 uM compound) | percentage of infection inhibition ([4]; P. yoelii, HepG2-CD81) | Percent Infection ([5]; Hepa1-6 Cells, Plasmodium yoelii) | percentage of infection inhibition ([5]; P. yoelii, Hepa1-6) | Percent Infection ([6]; Hepa1-6 Cells, Plasmodium berghei) | percentage of infection inhibition ([6]; P. berghei, Hepa1-6)
1 | 52.5 response units | 50.8 response units | 43 response units | 0% | 8% | 26% | O=C(O)/C(=C\c1ccccc1)c1ccccc1 [Ligand 40614, 2,3-diphenylprop-2-enoate] | wasn't found to enhance infection | enhance the infection | enhancing development | enhancing development | enhancing development | – | – | – | – | – | – | – | –
2 | 43.6 response units | 14.7 response units | 10.1 response units | 0% | 0% | 19% | CCC(C)(C)c1ccc(Oc2cccc(C(=O)O)c2)cc1 [Ligand 7962] | inhibit the infection | inhibit; also recorded: strongest inhibitory effect | – | Inhibition | – | 0% | 100% | 0% | 100% | 0% | 100% | 0% | 100%
